PubChem BioAssay AID1963421 (Molecular Pharmacology Branch, DTP, NCI, 2024)

System: 519858-162-T-J1-PDC complex spheroid growth, % test/control
Assay: Anticancer human tumor 519858-162-T-J1-PDC patient-derived colon adenocarcinoma cell line growth inhibition [Asc]
Settings: for IC50: curve of first compound; for viability, T/C: stronger effect = lower value
Summary of the method: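 Spheroid model: tumor line + HUVEC + hMSC. Single agents and combinations; top conc. at/near clinical Cmax (10 microM if undetermined), half-log dilutions. DMSO stocks at 800-fold test concentration.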
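Note: seven day drug exposure begun three days after spheroid seeding.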
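Throughout, for viability, T/C: 100% = DMSO vehicle wells and lower values mean less viable spheroid.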

## NC(=O)C(=Cn1cnc(-c2cc(C(F)(F)F)cc(C(F)(F)F)c2)n1)c1cncnc1 + CNC(C)C(=O)NC1CN(S(=O)(=O)c2cccc(S(=O)(=O)N3CCC4CCC(C(=O)NC(c5ccccc5)c5ccccc5)N4C(=O)C(NC(=O)C(C)NC)C3)c2)CCC2CCC(C(=O)NC(c3ccccc3)c3ccccc3)N2C1=O
Second compound 0.00316 µM
  IC50: > 0.3 µM
Second compound 0.01 µM
  IC50: > 0.3 µM
Second compound 0.0316 µM
  IC50: > 0.3 µM
Second compound 0.1 µM
  IC50: > 0.3 µM
Second compound 0.316 µM
  IC50: > 0.3 µM
Second compound 1 µM
  IC50: > 0.3 µM
Second compound 0.00316 µM, first compound 0.000949 µM
  viability, T/C: 139%
Second compound 0.00316 µM, first compound 0.003 µM
  viability, T/C: 116%
Second compound 0.00316 µM, first compound 0.00949 µM
  viability, T/C: 102%
Second compound 0.00316 µM, first compound 0.03 µM
  viability, T/C: 83.8%
Second compound 0.00316 µM, first compound 0.0949 µM
  viability, T/C: 71.7%
Second compound 0.00316 µM, first compound 0.3 µM
  viability, T/C: 71.2%
Second compound 0.01 µM, first compound 0.000949 µM
  viability, T/C: 91.2%
Second compound 0.01 µM, first compound 0.003 µM
  viability, T/C: 80%
Second compound 0.01 µM, first compound 0.00949 µM
  viability, T/C: 67.5%
Second compound 0.01 µM, first compound 0.03 µM
  viability, T/C: 70.7%
Second compound 0.01 µM, first compound 0.0949 µM
  viability, T/C: 67%
Second compound 0.01 µM, first compound 0.3 µM
  viability, T/C: 55.6%
Second compound 0.0316 µM, first compound 0.000949 µM
  viability, T/C: 87%
Second compound 0.0316 µM, first compound 0.003 µM
  viability, T/C: 85.7%
Second compound 0.0316 µM, first compound 0.00949 µM
  viability, T/C: 80.1%
Second compound 0.0316 µM, first compound 0.03 µM
  viability, T/C: 54.8%
Second compound 0.0316 µM, first compound 0.0949 µM
  viability, T/C: 65%
Second compound 0.0316 µM, first compound 0.3 µM
  viability, T/C: 63.5%
Second compound 0.1 µM, first compound 0.000949 µM
  viability, T/C: 99.2%
Second compound 0.1 µM, first compound 0.003 µM
  viability, T/C: 96.3%
Second compound 0.1 µM, first compound 0.00949 µM
  viability, T/C: 98.4%
Second compound 0.1 µM, first compound 0.03 µM
  viability, T/C: 67.8%
Second compound 0.1 µM, first compound 0.0949 µM
  viability, T/C: 50.1%
Second compound 0.1 µM, first compound 0.3 µM
  viability, T/C: 71.2%
Second compound 0.316 µM, first compound 0.000949 µM
  viability, T/C: 86.3%
Second compound 0.316 µM, first compound 0.003 µM
  viability, T/C: 105%
Second compound 0.316 µM, first compound 0.00949 µM
  viability, T/C: 67.1%
Second compound 0.316 µM, first compound 0.03 µM
  viability, T/C: 65.7%
Second compound 0.316 µM, first compound 0.0949 µM
  viability, T/C: 69.5%
Second compound 0.316 µM, first compound 0.3 µM
  viability, T/C: 67.6%
Second compound 1 µM, first compound 0.000949 µM
  viability, T/C: 88.4%
Second compound 1 µM, first compound 0.003 µM
  viability, T/C: 71.4%
Second compound 1 µM, first compound 0.00949 µM
  viability, T/C: 76.5%
Second compound 1 µM, first compound 0.03 µM
  viability, T/C: 51.4%
Second compound 1 µM, first compound 0.0949 µM
  viability, T/C: 72.3%
Second compound 1 µM, first compound 0.3 µM
  viability, T/C: 109%

## NC1CCC(NC2CC2c2ccccc2)CC1 (centres undefined) + CNC(C)C(=O)NC1CN(S(=O)(=O)c2cccc(S(=O)(=O)N3CCC4CCC(C(=O)NC(c5ccccc5)c5ccccc5)N4C(=O)C(NC(=O)C(C)NC)C3)c2)CCC2CCC(C(=O)NC(c3ccccc3)c3ccccc3)N2C1=O
Second compound 0.00316 µM
  IC50: > 0.1 µM
Second compound 0.01 µM
  IC50: > 0.1 µM
Second compound 0.0316 µM
  IC50: > 0.1 µM
Second compound 0.1 µM
  IC50: > 0.1 µM
Second compound 0.316 µM
  IC50: > 0.1 µM
Second compound 1 µM
  IC50: > 0.1 µM
Second compound 0.00316 µM, first compound 0.000316 µM
  viability, T/C: 106%
Second compound 0.00316 µM, first compound 0.001 µM
  viability, T/C: 90.1%
Second compound 0.00316 µM, first compound 0.00316 µM
  viability, T/C: 117%
Second compound 0.00316 µM, first compound 0.01 µM
  viability, T/C: 112%
Second compound 0.00316 µM, first compound 0.0316 µM
  viability, T/C: 92.4%
Second compound 0.00316 µM, first compound 0.1 µM
  viability, T/C: 85.3%
Second compound 0.01 µM, first compound 0.000316 µM
  viability, T/C: 129%
Second compound 0.01 µM, first compound 0.001 µM
  viability, T/C: 83.7%
Second compound 0.01 µM, first compound 0.00316 µM
  viability, T/C: 112%
Second compound 0.01 µM, first compound 0.01 µM
  viability, T/C: 88.5%
Second compound 0.01 µM, first compound 0.0316 µM
  viability, T/C: 109%
Second compound 0.01 µM, first compound 0.1 µM
  viability, T/C: 106%
Second compound 0.0316 µM, first compound 0.000316 µM
  viability, T/C: 89%
Second compound 0.0316 µM, first compound 0.001 µM
  viability, T/C: 111%
Second compound 0.0316 µM, first compound 0.00316 µM
  viability, T/C: 91.9%
Second compound 0.0316 µM, first compound 0.01 µM
  viability, T/C: 97.4%
Second compound 0.0316 µM, first compound 0.0316 µM
  viability, T/C: 95.5%
Second compound 0.0316 µM, first compound 0.1 µM
  viability, T/C: 102%
Second compound 0.1 µM, first compound 0.000316 µM
  viability, T/C: 105%
Second compound 0.1 µM, first compound 0.001 µM
  viability, T/C: 112%
Second compound 0.1 µM, first compound 0.00316 µM
  viability, T/C: 121%
Second compound 0.1 µM, first compound 0.01 µM
  viability, T/C: 94.9%
Second compound 0.1 µM, first compound 0.0316 µM
  viability, T/C: 109%
Second compound 0.1 µM, first compound 0.1 µM
  viability, T/C: 90%
Second compound 0.316 µM, first compound 0.000316 µM
  viability, T/C: 77.2%
Second compound 0.316 µM, first compound 0.001 µM
  viability, T/C: 81.5%
Second compound 0.316 µM, first compound 0.00316 µM
  viability, T/C: 118%
Second compound 0.316 µM, first compound 0.01 µM
  viability, T/C: 81.4%
Second compound 0.316 µM, first compound 0.0316 µM
  viability, T/C: 92.1%
Second compound 0.316 µM, first compound 0.1 µM
  viability, T/C: 102%
Second compound 1 µM, first compound 0.000316 µM
  viability, T/C: 82.9%
Second compound 1 µM, first compound 0.001 µM
  viability, T/C: 101%
Second compound 1 µM, first compound 0.00316 µM
  viability, T/C: 115%
Second compound 1 µM, first compound 0.01 µM
  viability, T/C: 81.3%
Second compound 1 µM, first compound 0.0316 µM
  viability, T/C: 85.8%
Second compound 1 µM, first compound 0.1 µM
  viability, T/C: 80.3%
